Source: US20020068749A1, “AIDS REMEDY” (priority 1996, published 2002)
Converted amounts (≈) assume the structure as drawn.

How the values were obtained:
[1] = Change of concentration in plasma over time after oral administration to rats (KNI-272 with Indinavir or Nelfinavir); conditions: for AUC: rat, plasma, po, 40 mg/kg, AUC value of Indinavir
Method: In this example, the change in concentration in blood of KNI-272 over time when the KNI-272 was orally administered in combination with Indinavir, i.e. the change in the concentration of a non-binding type of drug in plasma over time, was measured to evaluate the effect of drug interactions on fluctuations of dynamics in vivo. A commercially available Indinavir for oral administration, CRIXIVAN™ (manufactured by Merck), was used after dissolving Indinavir sulfate in a prescribed concentration. As KNI-272, a suspension prepared from a fine powder of KNI-272 was used. Rats were used as test animals. […] In addition, each compound was individually administered to control groups to evaluate the dynamics in vivo. The animals were fasted for 16 hours before administration. The measurement of the change in the non-binding drug concentration in plasma over time was carried out according to a conventional method using blood samples collected from the test animals.
The method of evaluation was applied to the above-mentioned system of Indinavir and KNI-272 was followed. […] In this example, a dosage of 50 mg/kg was selected for both Nelfinavir and KNI-272.

HIV Wild strain (IIIB) = assay: Anti-virus activity IC50 against wild strain; type: cell-based; conditions: Wild strain (IIIB)
KNI-272 resistant strain = assay: microbe, parasite or virus in culture; type: cell-based, HIV
Text: (§1) A drug resistant strain virus is a resistance strains induced in a cell culture system in vitro while maintaining infection in the presence of each medicament through generations.

[2] = system: Ritonavir resistant strain; assay: Anti-virus activity IC50 against Ritonavir resistant strain; type: cell-based, HIV; conditions: Ritonavir resistant strain
[3] = system: IIIB strain of HIV-1 in CEM-SS cells; assay: Measurement of anti-HIV activity in vitro (XTT method, control of cellular denaturalization due to HIV infection); type: cell-based
Method: An increase in the synergistic anti-virus activity in the combined use of KNI-272 and Saquinavir is shown by a specific experimental example. The anti-virus activity was evaluated as the capability of controlling generation of infectious virus particles in vitro. The effect of cell extinction to HIV infection was calculated when Saquinavir methanesulfonate and KNI-272 respectively or both were added to a culture liquid, to determine the concentration region where a synergistic increase in the anti-virus activity in the combined use of the two compounds is conspicuous. Measurement of the anti-virus activity in vitro was carried out according to the following procedure. In the description hereinafter the concentration of methanesulfonate is indicated as the concentration converted into Saquinavir. The concentration of KNI-272 is indicated as the concentration of the compound itself.
A IIIB strain of HIV-1 was used as an HIV wild strain and CEM-SS cells were used as infected cells in the above-mentioned culture. The amount of HIV sufficient to kill all CEM-SS cells 6 days after inoculation (multiplicy of infection, MOI of 0.01-0.05) was determined and this amount of HIV was added. A 96 well micro-titre plate was used to inoculate 5×10^3 CEM-SS cells per well in this case. At the time of inoculation of cells, a test compound was added to the culture medium to a prescribed concentration. Three specimens were used for each test level. The following controls were used (1) as calorimetric controls: a sample with only a test compound added to the culture medium, (2) as a cytotoxic control for a test compound: a sample with only cells and the test compound added to the culture medium, (3) as a virus control: a sample with the cells inoculated with only a virus, and (4) as a cell survival control, a sample consisting only of cells. In addition, AZT and DDC which are compounds with a known anti-HIV activity were used as positive controls. After the cells were added, they were inoculated with the infecting virus, followed by incubation at 37° C.for 6 days. Cellular denaturalization due to HIV infection was colorimetrically measured for each well. Employing the colorimetry, was the metabolism from XTT Tetrazolium to XTT Formazan was evaluated. This colorimetry is called the XTT method (see Weislow et al., Journal of the National Cancer Institute 81, 577-586 (1989)). After the above-mentioned incubation, a prescribed amount of XTT was added to each well and incubation was continued for a further four hours at 37° C. to measure the amount of XTT Formazan produced by metabolism by means of calorimetric quantitation.
The anti-HIV activity for each experimental level was calculated by comparing the number of undenatured cells measured by the above-mentioned assay with the corresponding number of cells in the four control groups. Specifically, the proportion of cellular denaturalization due to HIV infection controlled by the addition of the test compound was calculated. A systematic deviation between the several experiments was corrected based on the results of AZT and ddC used as positive controls.
In this example, 0 ng/ml and several concentrations in the range of 0.625-10.0 ng/ml of Saquinavir methanesulfonate and 0 ng/ml and several concentrations in the range of 0.313-80.0 ng/ml of KNI-272 were used. The results (anti-HIV activities) obtained under these conditions using either one of these medicaments or both medicaments in combination are shown in Table 1.
With regard to this concentration region wherein no synergistic increase can be seemingly identified, a similar evaluation was carried out adding a larger amount of HIV to qualitatively evaluate the presence or absence of a synergistic effect. […] This affords qualitative results rather than quantitative results.
An increase in the synergistic anti-virus activity in the combined use of KNI-272 and Ritonavir is shown by a specific experimental example. […]

[4] = Dynamics in vivo (concentration in plasma over time) of KNI-272 and Ritonavir in dogs
[5] = system: Indinavir resistant strain; assay: Anti-virus activity IC50 against Indinavir resistant strain; type: cell-based, HIV; conditions: Human immunodeficiency virus 1, read-out: Anti-virus activity IC50
Text: as §1

[6] = Indinavir 40 mg/kg + KNI-272 40 mg/kg p.o. at the same time
[7] = Human immunodeficiency virus 1, read-out: Anti-virus activity IC50

With `Cc1c(O)cccc1C(=O)N[C@@H](CSc1ccccc1)[C@H](O)CN1C[C@H]2CCCC[C@H]2C[C@H]1C(=O)NC(C)(C)C` (relative stereo) [Nelfinavir, [3S-[2(2S*, 3S*), 3α, 4α, 8aβ]]-N-1,1-dimethylethyl-decahydro-2-[2-hydroxy-3-[(3-hydroxy-2-methylbenzoyl)amino]-4-(phenylthio)butyl]-3-isoquinolinecarboxamide, reference compound] the “AUC value for Nelfinavir” value ([1]; Nelfinavir 50 mg/kg p.o. only) was 130 µg·min/mL, the “AUC value for Nelfinavir” value ([1]; Nelfinavir 50 mg/kg p.o. simultaneously with KNI-272 50 mg/kg) was 215 µg·min/mL and the “increase in AUC value for Nelfinavir” value ([1]; Nelfinavir 50 mg/kg with KNI-272 50 mg/kg vs alone) was ~1.6 times. For the same compound, the “Anti-virus activity IC50” value (HIV Wild strain (IIIB)) was 7 ng/mL, the “Anti-virus activity IC50” value (KNI-272 resistant strain; KNI-272 resistant strain) was 0.030 µg/mL and the “Anti-virus activity IC50” value [2] was 0.124 µg/mL.

In the case of `CC(C)c1nc(CN(C)C(=O)NC(C(=O)N[C@@H](Cc2ccccc2)C[C@H](O)[C@H](Cc2ccccc2)NC(=O)OCc2cncs2)C(C)C)cs1` (relative stereo) [Ritonavir, [5S-(5R*, 8R*, 10R*,11R*)]-10-hydroxy-2-methyl-5-(1-methylethyl)-1-[2-(1-methylethyl)-4-thiazolyl]-3,6-dioxo-8,11-bis(phenylmethyl)-2,4,7,12-tetraaza-tridecane-13-hydroxyacid 5-thiazolylmethyl ester, reference compound], the “Anti-HIV activity (%)” value ([3]; Ritonavir 1.25 ng/ml alone) is reported as 2.0%, the “Anti-HIV activity (%)” value ([3]; Ritonavir 2.5 ng/ml alone) is reported as 2.3% and the “Anti-HIV activity (%)” value ([3]; Ritonavir 5.0 ng/ml alone) is reported as 0.5%. For the same compound, the “Anti-HIV activity (%)” value ([3]; Ritonavir 10.0 ng/ml alone) was 8.9%, the “influence of combined use of KNI-272 on the dynamics in vivo of Ritonavir” value ([4]; KNI-272 administered immediately after Ritonavir, dogs) was “no apparent influence” and the “MRT value (index of the half-life of concentration in blood)” value ([4]; medicaments individually administered) was ≥ 180 minutes and more than 180 minutes.

With `CC(C)(C)NC(=O)[C@@H]1CN(Cc2cccnc2)CCN1C[C@@H](O)C[C@@H](Cc1ccccc1)C(=O)N[C@H]1c2ccccc2C[C@H]1O` [Indinavir, [1(1S, 2R),5(S)]-2,3,5-trideoxy-N-(2,3-dihydro-2-hydroxy-1H-indane-1-yl)-5-[2-(1,1-dimethylethyl)aminocarbonyl-4-(3-pyridinylmethyl)-1-piperazinyl]-2-(phenylmethyl)-D-erythro-pentonamide, reference compound] the “increase in maximum concentration in blood value (Cmax) of Indinavir” value [1, 6] was “as much as twice”, the “increase in the AUC value of Indinavir” value [1, 6] was “almost two times” and the AUC ([1]; Indinavir 40 mg/kg p.o. individually) was 17200 ng·h/mL. For the same compound, the AUC ([1]; Indinavir 40 mg/kg p.o. together with KNI-272 40 mg/kg) was 44300 ng·h/mL, the IC50 (HIV Wild strain (IIIB); [7]) was 9 ng/mL (≈ 0.0147 µM) and the IC50 [5] was 0.576 µg/mL (≈ 0.938 µM). The IC50 (KNI-272 resistant strain; [7]) was 0.03 µg/mL (≈ 0.0489 µM).
